Reference: patent US6734182B2, “Aryl sulfonamides and sulfamide derivatives and uses thereof” (Synaptic Pharmaceutical Corporation, priority 1995, dated 2004)

Assays:
human Y2 receptor = biological target: T1, human Y2 receptor (Homo sapiens, UniProt P49146); experiment: Radioligand binding to cloned human Y2 receptor (125I-PYY); conditions: cloned human Y2, stably transfected cells, read-out: Binding Affinity (K1 (nM) vs. 125I-PYY) Human Receptor Y2
T1 construct: expressed in transfected cells
T1 sequence (P49146 1-381): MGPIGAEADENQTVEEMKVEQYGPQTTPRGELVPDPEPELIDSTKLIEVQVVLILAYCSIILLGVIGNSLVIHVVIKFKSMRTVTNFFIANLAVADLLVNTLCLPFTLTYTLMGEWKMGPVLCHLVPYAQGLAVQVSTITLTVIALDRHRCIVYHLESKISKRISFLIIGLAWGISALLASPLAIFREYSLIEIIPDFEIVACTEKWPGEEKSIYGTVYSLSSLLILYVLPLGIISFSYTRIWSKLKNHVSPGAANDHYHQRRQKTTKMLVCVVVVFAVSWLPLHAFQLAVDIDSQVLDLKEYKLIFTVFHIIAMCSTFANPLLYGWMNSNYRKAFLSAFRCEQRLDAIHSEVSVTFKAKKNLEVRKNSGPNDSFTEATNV
Method: (§1) Human Y1, human Y2, and rat Y5 receptors were co-transfected with a G-418 resistant gene into the human embryonic kidney 293 cell line by a calcium phosphate transfection method (Cullen, 1987). Stably transfected cells were selected with G-418. Human Y4 and human Y5 receptors were similarly transfected into mouse fibroblast LM(tk−) cells and NIH-3T3 cells.
(§2) Binding of the compounds of the present invention to the human Y1, Y2, Y4 and Y5 receptors was evaluated using stably transfected 293 or LM(tk−) cells as described above. Stably transfected cell lines which may be used for binding assays include, for example, for the human Y1 receptor, 293-hY1-5 (deposited Jun. 4, 1996, under ATCC Accession No. CRL-12121), for the human Y2 receptor, 293-hY2-10 (deposited Jan. 27, 1994, under ATCC Accession No. CRL-11537), for the human Y4 receptor, L-hY4-3 (deposited Jan. 11, 1995, under ATCC Accession No. CRL-11779), and for the human Y5 receptor, L-hY5-7 (deposited Nov. 15, 1995, under ATCC Accession No. CRL-11995).
(§3) Membranes were harvested from COS-7 cells 48 hours after transient transfection. Adherent cells were washed twice in ice-cold phosphate buffered saline (138 mM NaCl, 8.1 mM Na2HPO4, 2.5 mM KCl, […], 0.9 mM CaCl2, 0.5 mM MgCl2, pH 7.4) and lysed by sonication in ice-cold sonication buffer (20 mM Tris-HCl, 5 mM EDTA, pH 7.7). Large particles and debris were cleared by low speed centrifugation (200 x g, 5 min, 4° C.). Membranes were collected from the supernatant fraction by centrifugation (32,000 x g, 18 min, […] ), washed with ice-cold hypotonic buffer, and collected again by centrifugation (32,000 x g, 18 min, 4° C.). […] Protein concentration was measured by the Bradford method (Bradford, 1976) using Bio-Rad Reagent, with bovine serum albumin as a standard. Membranes were held on ice for up to one hour and used fresh, or flash-frozen and stored in liquid nitrogen.
(§4) Membranes were prepared similarly from 293, LM(tk−), and NIH-3T3 cells. To prepare membranes from baculovirus infected cells, 2×10^7 Sf21 cells were grown in 150 mm tissue culture dishes and infected with a high-titer stock of hY5BB3. Cells were incubated for 2-4 days at 27° C., no CO2 be fore harvesting and membrane preparation as described above.

human 5HT1E receptor = biological target: T2, human 5HT1E receptor (Homo sapiens, UniProt P28566); experiment: Binding to human 5HT1E receptor ([3H]serotonin); conditions: cloned human receptor; read-out: Receptor (pKi) 5HT1E (converted)
T2 construct: expressed in transfected cells
T2 sequence (P28566 whole entry): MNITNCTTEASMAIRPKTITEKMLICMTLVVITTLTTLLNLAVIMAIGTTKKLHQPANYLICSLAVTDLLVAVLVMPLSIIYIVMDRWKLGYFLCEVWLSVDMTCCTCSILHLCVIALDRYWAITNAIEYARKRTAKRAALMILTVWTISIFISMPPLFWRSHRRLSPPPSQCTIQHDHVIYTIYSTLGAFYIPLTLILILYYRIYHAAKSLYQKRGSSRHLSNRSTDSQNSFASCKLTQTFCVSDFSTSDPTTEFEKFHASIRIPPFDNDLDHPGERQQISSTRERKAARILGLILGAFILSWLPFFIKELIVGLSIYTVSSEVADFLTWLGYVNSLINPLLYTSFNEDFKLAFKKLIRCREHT
Method: (§5) 5HT1Dα, 5HT1Dβ, 5HT1E, 5HT1F Receptors: LM(tk−) clonal cell lines stably transfected with the genes encoding each of these 5HT receptor subtypes were prepared as described above. The cell line for the 5HT1Dα, receptor, designated as Ltk−8-30-84, was deposited on Apr. 17, 1990, and accorded ATCC Accession No. CRL 10421. The cell for the 5HT1Dβ receptor, designated as Ltk−11, was deposited on Apr. 17, 1990, and accorded ATCC Accession No. CRL 10422. The cell line for the 5HT1E receptor, designated 5 HT1E-7, was deposited on Nov. 6, 1991, and accorded ATCC Accession No. CRL 10913. The cell line for the 5HT1F receptor, designated L-5-HT1F, was deposited on Dec. 27, 1991, and accorded ATCC Accession No. ATCC 10957. Membrane preparations comprising these receptors were prepared as described below, and suspended in 50 mM Tris-HCl buffer (pH 7.4 at 37° C.) containing 10 mM MgCl2, 0.2 mM EDTA, 10 μM pargyline, and 0.1% ascorbate. The binding of compounds was determined in competition binding assays by incubation for 30 minutes at 37° C. in the presence of 5 nM [^3H) serotonin. Nonspecific binding was determined in the presence of 10 μM serotonin. The bound radioligand was separated by filtration through GF/B filters using a cell harvester.

[1] = test system: food intake in food-deprived rats; experiment: Food intake in food-deprived rats (24 h food deprivation); type: in vivo, rat; parameters: concentration or dose not given beside the values; conditions: rats after 24 h food deprivation; two hours after administration of test compound
human 5HT1F receptor = biological target: T3, human 5HT1F receptor (Homo sapiens, UniProt P30939); experiment: Binding to human 5HT1F receptor ([3H]serotonin); conditions: cloned human receptor; read-out: Receptor (pKi) 5HT1F (converted)
T3 construct: expressed in transfected cells
T3 sequence (P30939 1-366): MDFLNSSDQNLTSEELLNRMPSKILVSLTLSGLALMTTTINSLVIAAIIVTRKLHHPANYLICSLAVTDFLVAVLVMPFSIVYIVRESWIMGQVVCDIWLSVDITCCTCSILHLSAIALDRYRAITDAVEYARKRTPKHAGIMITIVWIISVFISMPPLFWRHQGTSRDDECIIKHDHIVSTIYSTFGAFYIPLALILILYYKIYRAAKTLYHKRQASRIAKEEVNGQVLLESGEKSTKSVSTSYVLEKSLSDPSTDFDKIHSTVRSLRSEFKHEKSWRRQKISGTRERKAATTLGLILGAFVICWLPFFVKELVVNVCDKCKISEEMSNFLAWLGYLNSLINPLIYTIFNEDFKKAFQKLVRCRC
Method: as §5

human Y4 receptor = biological target: T4, human Y4 receptor (Homo sapiens, UniProt P50391); experiment: Radioligand binding to cloned human Y4 receptor (125I-PYY); conditions: cloned human Y4, stably transfected cells, read-out: Binding Affinity (K1 (nM) vs. 125I-PYY) Human Receptor Y4
T4 construct: expressed in transfected cells
T4 sequence (P50391 whole entry): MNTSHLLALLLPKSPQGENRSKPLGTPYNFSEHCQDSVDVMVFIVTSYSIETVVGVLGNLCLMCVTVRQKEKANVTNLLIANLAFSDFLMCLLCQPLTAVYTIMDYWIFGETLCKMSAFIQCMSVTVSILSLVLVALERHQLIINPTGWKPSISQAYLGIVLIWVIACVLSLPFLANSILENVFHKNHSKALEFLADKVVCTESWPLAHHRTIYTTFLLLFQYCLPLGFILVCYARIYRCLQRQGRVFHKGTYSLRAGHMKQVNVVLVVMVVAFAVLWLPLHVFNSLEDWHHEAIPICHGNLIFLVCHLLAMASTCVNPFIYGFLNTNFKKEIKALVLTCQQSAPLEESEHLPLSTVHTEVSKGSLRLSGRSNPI
Method: as §1, §2, §3, §4

[2] = test system: NPY-induced feeding behavior in satiated rats; experiment: NPY-induced food intake in satiated rats; type: in vivo, rat; conditions: compound 10 mg/kg i.p., then 300 pmole NPY i.c.v., 4 hours after NPY, in g (unit assumed)
Method: For these determinations food intake maybe measured in normal satiated rats after intracerebroventricular application (i.c.v.) of NPY in the presence or absence of the test compound. Male Sprague Dawley rats ciba-Geigy AG, Sisseln, Switzerland weighing between 180 g and 220 g are used for all experiments. The rats are individually housed in stainless steel cages and maintained on an 11:13 h light-dark cycle (lights off at 18:00 h) at a controlled temperature of 21-23° C. at all times. Water and food (NAFAG lab chow pellets, NAFAG, Gossau, Switzerland) are available ad libidum.
Rats under pentobarbital anesthesia are stereotaxically implanted with a stainless steel guide cannula targeted at the right lateral ventricle. Stereotaxic coordinates, with the incisor bar set −2.0 mm below interaural line, are: −0.8 mm anterior and +1.3 mm lateral to bregma. The guide cannula is placed on the dura. […]
Food intake may be measured by placing preweighed pellets into the cages at the time of NPY injection. […] The food intake of animals treated with test compound may be calculated as a percentage of the food intake of control animals, i.e., animals treated with vehicle. Alternatively, food intake for a group of animals subjected to the same experimental condition may be expressed as the mean ±S.E.M. Statistical analysis is performed by analysis of variance using the Student-Newman-Keuls test. […]

human Y5 receptor = biological target: T5, human Y5 receptor (Homo sapiens, UniProt Q15761); experiment: Radioligand binding to cloned human Y5 receptor (125I-PYY); conditions: cloned human Y5, stably transfected cells, read-out: Binding Affinity (K1 (nM) vs. 125I-PYY) Human Receptor Y5
T5 construct: expressed in transfected cells
T5 sequence (Q15761 1-445): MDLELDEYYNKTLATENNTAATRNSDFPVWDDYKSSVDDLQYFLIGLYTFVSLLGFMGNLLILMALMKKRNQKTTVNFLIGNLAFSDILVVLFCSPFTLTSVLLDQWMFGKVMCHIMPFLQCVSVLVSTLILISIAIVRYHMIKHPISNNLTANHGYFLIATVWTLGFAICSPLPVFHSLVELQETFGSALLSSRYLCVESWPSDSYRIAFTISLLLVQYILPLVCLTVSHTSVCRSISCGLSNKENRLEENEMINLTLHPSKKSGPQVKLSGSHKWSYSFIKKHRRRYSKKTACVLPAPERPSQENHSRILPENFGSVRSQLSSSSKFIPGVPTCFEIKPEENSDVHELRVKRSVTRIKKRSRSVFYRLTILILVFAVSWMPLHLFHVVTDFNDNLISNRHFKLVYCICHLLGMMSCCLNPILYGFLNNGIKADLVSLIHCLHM

human Y1 receptor = biological target: T6, human Y1 receptor (Homo sapiens, UniProt P25929); experiment: Radioligand binding to cloned human Y1 receptor (125I-PYY); conditions: cloned human Y1, stably transfected cells, read-out: Binding Affinity (K1 (nM) vs. 125I-PYY) Human Receptor Y1
T6 construct: expressed in transfected cells
T6 sequence (P25929 1-384): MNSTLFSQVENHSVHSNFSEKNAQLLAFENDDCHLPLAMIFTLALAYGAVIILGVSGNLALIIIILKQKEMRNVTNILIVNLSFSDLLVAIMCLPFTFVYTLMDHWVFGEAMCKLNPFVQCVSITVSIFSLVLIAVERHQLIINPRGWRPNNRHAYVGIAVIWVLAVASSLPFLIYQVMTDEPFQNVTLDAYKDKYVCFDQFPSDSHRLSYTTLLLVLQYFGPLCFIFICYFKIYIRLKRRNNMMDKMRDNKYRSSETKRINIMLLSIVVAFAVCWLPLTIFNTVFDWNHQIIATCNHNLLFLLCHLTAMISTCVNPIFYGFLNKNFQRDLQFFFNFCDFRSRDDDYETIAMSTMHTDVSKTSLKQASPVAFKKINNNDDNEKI

cloned human Y5 receptor = biological target: T7, cloned human Y5 receptor (Homo sapiens, UniProt Q15761); experiment: Functional assay: block of NPY-induced inhibition of cAMP accumulation in forskolin-stimulated LM(tk-) cells (radioimmunoassay of cAMP); type: cell-based; conditions: antagonism of NPY-induced inhibition of cAMP accumulation, forskolin-stimulated LM(tk-) cells with human Y5; at least three experiments
T7 construct: expressed in transfected cells
T7 sequence (Q15761 1-445): T5 sequence (Q15761 1-445)

| Ki (human Y2 receptor) [nM] | Ki (human 5HT1E receptor) [µM] | Ki (human 5HT1F receptor) [µM] | Ki (human Y4 receptor) [nM] | Ki (human Y5 receptor) [nM] | Ki (human Y1 receptor) [nM] | Kb (cloned human Y5 receptor) [µM] | Structure (SMILES) | Two-hour food intake, percentage of intake compared to control rats, Mean (%) [1] [%] | NPY-induced cumulative food intake (NPY + compound), mean ± S.E.M. [2] |
| --- | --- | --- | --- | --- | --- | --- | --- | --- | --- |
| 851 | ≥ 5.01 | ≥ 5.01 | 13100 | – | – | – | O=S(=O)(NC[C@H]1CC[C@H](CNC(CO)Cc2ccc(Cl)cc2)CC1)c1cccc2ccccc12 (relative stereo) [Example 77, Naphthalene-1-sulfonic Acid trans-(4-{[2-(4-Chloro-phenyl)-1-hydroxymethyl-ethylamino]-methyl}-cyclohexylmethyl)-amide] | 32 | – |
| – | – | – | – | – | – | – | Cl.O=S(=O)(NCC1CCC(CNCC2CCc3ccccc3C2)CC1)c1ccc2ccccc2c1 (centres unmarked) [Example 31] | 27 | 3.8 ± 0.4 |
| 617 | – | – | 21500 | 26 | 14500 | 0.038 | Cl.O=S(=O)(NCC1CCC(CNCc2cccc3ccccc23)CC1)c1ccccc1C(F)(F)F (centres unmarked) [Example 37] | 58 | – |
| 1610 | – | – | 18500 | 9.8 | 13000 | 0.016 | Cl.O=S(=O)(NCC1CCC(CNCc2ccc3ccccc3c2)CC1)c1ccccc1C(F)(F)F (centres unmarked) [Example 38] | 80 | – |
| 58200 | – | – | 19300 | – | 23700 | – | Cl.Cl.O=[N+]([O-])c1ccccc1S(=O)(=O)NCC1CCC(CNCc2ccc3ccccc3n2)CC1 (centres unmarked) [Example 44] | 73 | – |
| 5280 | – | – | 63100 | 28 | 48700 | 0.049 | Cl.Cl.O=[N+]([O-])c1ccccc1S(=O)(=O)NCC1CCC(CNCc2ccnc3ccccc23)CC1 (centres unmarked) [Example 45] | 84 | – |
